From patent US11129827B2 (priority 2017, dated 2021)
Like-named read-outs stand apart in the source and are kept apart here.

Key:
[1] = molecular target: MAGL (Mus musculus (Mouse), UniProt O35678); assay: in vivo; details: po, read-out: MAGL (mouse) % inh. 5 mg/kg
[2] = molecular target: FAAH (Homo sapiens (Human), UniProt O00519); assay: biochemical; details: for inhibition at 1 µM: read-out: FAAH (human) % inh. 1 μM
[3] = molecular target: FAAH (Mus musculus (Mouse), UniProt O08914); assay: in vivo; details: po, read-out: FAAH (mouse) % inh. 5 mg/kg
[4] = molecular target: MAGL (Homo sapiens (Human), UniProt Q99685); assay: biochemical; details: for inhibition at 1 µM: read-out: MAGL (human) % inh. 1 μM

SMILES	inhibition at 5 mg/kg [1] [%]	inhibition at 1 µM [2] [%]	IC50 ([2]; read-out: FAAH (human) IC50) [nM]	inhibition at 5 mg/kg [3] [%]	inhibition at 1 µM [4] [%]	IC50 ([4]; read-out: MAGL (human) IC50) [nM]	IC50 [2] [nM]	IC50 [4] [nM]
C[C@@H]1CN(Cc2cc(Cl)cc(C(F)(F)F)c2)CCN1C(=O)Oc1cncc(C(N)=O)c1 [Example 65, (R)-5-Carbamoylpyridin-3-yl 4-(3-chloro-5-(trifluoromethyl)benzyl)-2-methylpiperazine-1-carboxylate]	> 75	> 75	100 to 1000	> 75	> 75	100 to 1000	–	–
C[C@@H]1CN(Cc2cc(F)cc(C(F)(F)F)c2)CCN1C(=O)Oc1cncc(C(N)=O)c1 [Example 20, 5-Carbamoylpyridin-3-yl (R)-4-(3-fluoro-5-(trifluoromethyl)benzyl)-2-methylpiperazine-1-carboxylate]	> 75	> 75	< 100	> 75	> 75	< 100	–	–
CC(C)Oc1ccc(CN2CCN(C(=O)Oc3cncc(C(N)=O)c3)CC2)c(OC(F)(F)F)c1 [Example 18, 5-Carbamoylpyridin-3-yl 4-(4-isopropoxy-2-(trifluoromethoxy)benzyl)piperazine-1-carboxylate]	> 75	> 75	100 to 1000	> 75	> 75	100 to 1000	–	–
C[C@@H]1CN(Cc2cccc(OC(F)(F)F)c2)CCN1C(=O)Oc1cncc(C(N)=O)c1 [Example 74, (R)-5-Carbamoylpyridin-3-yl 2-methyl-4-(3-(trifluoromethoxy)benzyl)piperazine-1-carboxylate]	> 75	> 75	–	> 75	25 to 50	100 to 1000	< 100	–
NC(=O)c1cncc(OC(=O)N2CCC3(CCN(Cc4cc(Cl)ccc4C(F)(F)F)C3)CC2)c1 [Example 4, 5-Carbamoylpyridin-3-yl 2-(5-chloro-2-(trifluoromethyl)benzyl)-2,8-diazaspiro[4.5]decane-8-carboxylate]	> 75	> 75	< 100	> 75	> 75	< 100	–	–
O=C(Oc1cncc(C(F)(F)F)c1)N1CCC2(CC1)CN(Cc1cccc(Oc3nc4ccccc4s3)c1)C2 [Example 7, 5-(Trifluoromethyl)pyridin-3-yl 2-(3-(benzo[d]thiazol-2-yloxy)benzyl)-2,7-diazaspiro[3.5]nonane-7-carboxylate]	25 to 50	> 75	< 100	> 75	> 75	< 100	–	–
C[C@@H]1CN(Cc2cc(Cl)cc(Oc3ncccn3)c2)CCN1C(=O)Oc1cncc(C#N)c1 [Example 86, 5-Cyanopyridin-3-yl (R)-4-(3-chloro-5-(pyrimidin-2-yloxy)benzyl)-2-methylpiperazine-1-carboxylate]	> 75	> 75	–	> 75	> 75	–	< 100	100 to 1000
NC(=O)c1cncc(OC(=O)N2CCC3(CCN(Cc4ccc(Cl)c(Cl)c4)C3)CC2)c1 [Example 36, 5-Carbamoylpyridin-3-yl 2-(3,4-dichlorobenzyl)-2,8-diazaspiro[4.5]decane-8-carboxylate]	25 to 50	> 75	< 100	> 75	> 75	< 100	–	–
CC(C)Oc1cc(CN2CCN(C(=O)Oc3cncc(NS(C)(=O)=O)c3)CC2)ccc1Cl [Example 15, 5-(Methylsulfonamido)pyridin-3-yl 4-(4-chloro-3-isopropoxybenzyl)piperazine-1-carboxylate]	0 to 25	> 75	–	0 to 25	> 75	100 to 1000	< 100	–
O=C(Oc1cncc(C(F)(F)F)c1)N1CCC2(CC1)CN(Cc1cccc(Oc3cncc(C(F)(F)F)c3)c1)C2 [Example 38, 5-(Trifluoromethyl)pyridin-3-yl 2-(3-((5-(trifluoromethyl)pyridin-3-yl)oxy)benzyl)-2,7-diazaspiro[3.5]nonane-7-carboxylate]	0 to 25	> 75	< 100	> 75	> 75	< 100	–	–
O=C(Oc1cncc(C(F)(F)F)c1)N1CCC2(CC1)CC(Oc1cccc(C(=O)N3CCCC3)c1)C2 [Example 26, 5-(Trifluoromethyl)pyridin-3-yl 2-(3-(pyrrolidine-1-carbonyl)phenoxy)-7-azaspiro[3.5]nonane-7-carboxylate]	–	> 75	100 to 1000	–	> 75	–	–	< 100
O=C(Oc1cncc(C(F)(F)F)c1)N1CCC2(CC1)CN(Cc1ccc(Cl)c(Oc3ccccc3)c1Cl)C2 [Example 14, 5-(Trifluoromethyl)pyridin-3-yl 2-(2,4-dichloro-3-phenoxybenzyl)-2,7-diazaspiro[3.5]nonane-7-carboxylate]	–	50 to 75	–	–	> 75	–	–	–
CC(=O)Nc1cncc(OC(=O)N2CCN(Cc3ccc(Cl)c(OC(C)C)c3)CC2)c1 [Example 52, 5-Acetamidopyridin-3-yl 4-(4-chloro-3-isopropoxybenzyl)pipera-zine-1-carboxylate]	0 to 25	> 75	100 to 1000	> 75	> 75	–	–	< 100
O=C(Oc1cncc(C(F)(F)F)c1)N1CCC2(CC1)CN(Cc1ccc(Oc3ccccc3Cl)cc1)C2 [Example 8, 5-(Trifluoromethyl)pyridin-3-yl 2-(4-(2-chlorophenoxy)benzyl)-2,7-diazaspiro[3.5]nonane-7-carboxylate]	–	–	100 to 1000	–	–	–	–	< 100
O=C(Oc1cncc(C(F)(F)F)c1)N1CCC2(CC1)CC(Oc1cc(Cl)cc(Cl)c1)C2 [Example 25, 5-(Trifluoromethyl)pyridin-3-yl 2-(3,5-dichlorophenoxy)-7-azaspiro[3.5]nonane-7-carboxylate]	–	> 75	100 to 1000	–	> 75	–	–	< 100
O=C(Oc1cncc(C(F)(F)F)c1)N1CCC2(CC1)CC(Oc1cccc(C(F)(F)F)c1)C2 [Example 1, 5-(Trifluoromethyl)pyridin-3-yl 2-(3-(trifluoromethyl)phenoxy)-7-azaspiro[3.5]nonane-7-carboxylate]	–	> 75	< 100	–	> 75	< 100	–	–
NC(=O)c1cncc(OC(=O)N2CCC3(CCN(Cc4cc(Cl)cc(C(F)(F)F)c4)C3)CC2)c1 [Example 3, 5-Carbamoylpyridin-3-yl 2-(3-chloro-5-(trifluoromethyl)benzyl)-2,8-diazaspiro[4.5]decane-8-carboxylate]	–	> 75	< 100	–	> 75	< 100	–	–
O=C(Oc1cncc(C(F)(F)F)c1)N1CCC2(CC1)CN(Cc1ccc(Oc3cccc(Cl)c3)cc1)C2 [Example 2, 5-(Trifluoromethyl)pyridin-3-yl 2-(4-(3-chlorophenoxy)benzyl)-2,7-diazaspiro[3.5]nonane-7-carboxylate]	–	–	–	–	–	100 to 1000	1000 to 10000	–
O=C(Oc1cncc(C(F)(F)F)c1)N1CCC2(CC1)CN(Cc1cccc(Oc3cccc(Cl)c3)c1)C2 [Example 10, 5-(Trifluoromethyl)pyridin-3-yl 2-(3-(3-chlorophenoxy)benzyl)-2,7-diazaspiro[3.5]nonane-7-carboxylate]	–	–	< 100	–	–	< 100	–	–
O=C(Oc1cncc(C(F)(F)F)c1)N1CCN(Cc2cc(Cl)ccc2C(F)(F)F)CC1 [Example 44, 5-(Trifluoromethyl)pyridin-3-yl 4-(5-chloro-2-(trifluoromethyl)benzyl)piperazine-1-carboxylate]	–	> 75	100 to 1000	–	> 75	100 to 1000	–	–
O=C(Oc1cncc(C(F)(F)F)c1)N1CCC2(CC1)CN(Cc1cccc(Oc3ccc(C(F)(F)F)cn3)c1)C2 [Example 37, 5-(Trifluoromethyl)pyridin-3-yl 2-(3-((5-(trifluoromethyl)pyridin-2-yl)oxy)benzyl)-2,7-diazaspiro[3.5]nonane-7-carboxylate]	–	> 75	–	–	> 75	–	–	–
O=C(Oc1cncc(C(F)(F)F)c1)N1CCC2(CC1)CN(Cc1cc(Cl)cc(Oc3nc4ccccc4s3)c1)C2 [Example 23, 5-(Trifluoromethyl)pyridin-3-yl 2-(3-(benzo[d]thiazol-2-yloxy)-5-chlorobenzyl)-2,7-diazaspiro[3.5]nonane-7-carboxylate]	–	> 75	< 100	–	> 75	< 100	–	–
